Key:
[1] = Cytotoxicity against human HeLa67 cells expressing CD4/CCR5 after 3 days by XTT assay; assay type: cell-based
[2] = system: Human immunodeficiency virus 1; experiment: Antiviral activity against pseudotype HIV1 JRFL infected in human HeLa67 cells expressing CD4/CCR5 after 3 days by luciferase reporter gene assay; assay type: functional, organism-based; settings: Human immunodeficiency virus 1, JRFL, HeLa67, 72 h
[3] = Clearance in rat at 1 mg/kg, iv dosed as solution in PEG400/EtOH; assay type: ADME, organism-based; design: dose 1 mg/kg, route intravenous; settings: in vivo
[4] = Volume of distribution at steady state in rat at 1 mg/kg, iv dosed as solution in PEG400/EtOH; assay type: ADME, organism-based; design: dose 1 mg/kg, route intravenous; settings: in vivo, read-out: Vdss
[5] = Terminal half life in rat at 1 mg/kg, iv dosed as solution in PEG400/EtOH; assay type: ADME, organism-based; design: dose 1 mg/kg, route intravenous; settings: in vivo, read-out: beta t1/2
[6] = Mean residence time in rat at 1 mg/kg, iv dosed as solution in PEG400/EtOH; assay type: ADME, organism-based; design: dose 1 mg/kg, route intravenous; settings: in vivo
[7] = Cmax in rat at 5 mg/kg, po dosed as solution in PEG400/EtOH; assay type: ADME, organism-based; design: dose 5 mg/kg, route oral; settings: in vivo
[8] = Tmax in rat at 5 mg/kg, po dosed as solution in PEG400/EtOH; assay type: ADME, organism-based; design: dose 5 mg/kg, route oral; settings: in vivo
[9] = Terminal half life in rat at 5 mg/kg, po dosed as solution in PEG400/EtOH; assay type: ADME, organism-based; design: dose 5 mg/kg, route oral; settings: in vivo, read-out: beta t1/2
[10] = Oral bioavailability in rat at 5 mg/kg dosed as solution in PEG400/EtOH; assay type: ADME, organism-based; settings: in vivo
[11] = Permeability across human Caco-2 cells; assay type: ADME, cell-based; settings: read-out: permeability
[12] = Cmax in rat at 25 mg/kg, po dosed as solution in PEG400/EtOH; assay type: ADME, organism-based; design: dose 25 mg/kg, route oral; settings: in vivo
[13] = Clearance in rat at 5 mg/kg, iv dosed as solution in PEG400/EtOH; assay type: ADME, organism-based; design: dose 5 mg/kg, route intravenous; settings: in vivo
[14] = Volume of distribution at steady state in rat at 5 mg/kg, iv dosed as solution in PEG400/EtOH; assay type: ADME, organism-based; design: dose 5 mg/kg, route intravenous; settings: in vivo, read-out: Vdss
[15] = Terminal half life in rat at 5 mg/kg, iv dosed as solution in PEG400/EtOH; assay type: ADME, organism-based; design: dose 5 mg/kg, route intravenous; settings: in vivo, read-out: beta t1/2
[16] = Mean residence time in rat at 5 mg/kg, iv dosed as solution in PEG400/EtOH; assay type: ADME, organism-based; design: dose 5 mg/kg, route intravenous; settings: in vivo
[17] = Tmax in rat at 25 mg/kg, po dosed as solution in PEG400/EtOH; assay type: ADME, organism-based; design: dose 25 mg/kg, route oral; settings: in vivo
[18] = Terminal half life in rat at 25 mg/kg, po dosed as solution in PEG400/EtOH; assay type: ADME, organism-based; design: dose 25 mg/kg, route oral; settings: in vivo, read-out: beta t1/2
[19] = Oral bioavailability in rat at 25 mg/kg dosed as solution in PEG400/EtOH; assay type: ADME, organism-based; settings: in vivo
[20] = system: Human immunodeficiency virus 1; experiment: Antiviral activity against pseudotype HIV1 LAI infected in human HeLa67 cells expressing CD4/CCR5 after 3 days by luciferase reporter gene assay; assay type: functional, organism-based; settings: Human immunodeficiency virus 1, LAI, HeLa67, 72 h

Row | EC50 [2] [nM] | SMILES | CC50 at 72 h [1] [µM] | other results
1 | 0.45 | CCOc1cccc2[nH]cc(C(=O)C(=O)N3CCN(C(=O)c4ccccc4)CC3)c12 | > 94.8 | –
2 | 17.4 | O=C(C(=O)N1CCN(C(=O)c2ccccc2)CC1)c1c[nH]c2c(Br)cccc12 | 64 | –
3 | 1450 | CCn1cc(C(=O)C(=O)N2CCN(C(=O)c3ccccc3)CC2)c2ccccc21 | > 300 | –
4 | 4.5 | O=C(C(=O)N1CCN(C(=O)c2ccccc2)CC1)c1c[nH]c2cccc(Br)c12 | 142 | –
5 | 1550 | Cc1ccc2[nH]cc(C(=O)C(=O)N3CCN(C(=O)c4ccccc4)CC3)c2c1 | > 300 | –
6 | 329 | COc1ccc2c(C(=O)C(=O)N3CCN(C(=O)c4ccccc4)CC3)c[nH]c2c1 | > 300 | –
7 | > 500 | CC(C)Oc1cccc2[nH]cc(C(=O)C(=O)N3CCN(C(=O)c4ccccc4)CC3)c12 | 150 | –
8 | 0.5 | CCOc1cccc2c(C(=O)C(=O)N3CCN(C(=O)c4ccccc4)CC3)c[nH]c12 | 117 | –
9 | 1.7 | O=C(C(=O)N1CCN(C(=O)c2ccccc2)CC1)c1c[nH]c2c(F)c(F)c(F)c(F)c12 | 55.7 | –
10 | 21100 | COc1ccc2[nH]cc(C(=O)C(=O)N3CCN(C(=O)c4ccccc4)CC3)c2c1 | > 300 | –
11 | 0.07 | COc1ccc(Cl)c2[nH]cc(C(=O)C(=O)N3CCN(C(=O)c4ccccc4)CC3)c12 | > 300 | –
12 | 20100 | O=C(C(=O)N1CCN(C(=O)c2ccccc2)CC1)c1c[nH]c2cccc(O)c12 | > 300 | –
13 | 0.42 | O=C(C(=O)N1CCN(C(=O)c2ccccc2)CC1)c1c[nH]c2cc(F)cc(F)c12 | > 188 | –
14 | 42.8 | O=C(C(=O)N1CCN(C(=O)c2ccccc2)CC1)c1c[nH]c2c(Br)ccc(OC(F)(F)F)c12 | 75.7 | –
15 | 121000 | N#Cc1ccc2[nH]cc(C(=O)C(=O)N3CCN(C(=O)c4ccccc4)CC3)c2c1 | > 300 | –
16 | 150 | O=C(C(=O)N1CCN(C(=O)c2ccccc2)CC1)c1c[nH]c2cccc([N+](=O)[O-])c12 | > 300 | –
17 | 0.13 | COc1ccc(Br)c2[nH]cc(C(=O)C(=O)N3CCN(C(=O)c4ccccc4)CC3)c12 | 118 | –
18 | 0.71 | O=C(C(=O)N1CCN(C(=O)c2ccccc2)CC1)c1c[nH]c2c(OCC(F)(F)F)ccc(F)c12 | 196 | –
19 | > 500 | O=C(C(=O)N1CCN(C(=O)c2ccccc2)CC1)c1c[nH]c2cc(Cl)c(F)cc12 | 98.5 | –
20 | 0.06 | COc1ccc(C#N)c2[nH]cc(C(=O)C(=O)N3CCN(C(=O)c4ccccc4)CC3)c12 | > 275 | –
21 | 4.3 | O=C(C(=O)N1CCN(C(=O)c2ccccc2)CC1)c1c[nH]c2cccc(Cl)c12 | 212 | –
22 | > 500 | Cc1ccc(C)c2c(C(=O)C(=O)N3CCN(C(=O)c4ccccc4)CC3)c[nH]c12 | 202 | –
23 | 6760 | C/C=C/n1cc(C(=O)C(=O)N2CCN(C(=O)c3ccccc3)CC2)c2ccccc21 | 202 | –
24 | 0.52 | COc1cccc2[nH]cc(C(=O)C(=O)N3CCN(C(=O)c4ccccc4)CC3)c12 | > 300 | –
25 | 208 | O=C(C(=O)N1CCN(C(=O)c2ccccc2)CC1)c1c[nH]c2cc(Cl)ccc12 | > 110 | –
26 | 4.4 | O=C(C(=O)N1CCN(C(=O)c2ccccc2)CC1)c1c[nH]c2c(Cl)cccc12 | 162 | –
27 | 0.35 | O=C(C(=O)N1CCN(C(=O)c2ccccc2)CC1)c1c[nH]c2c(F)ccc(F)c12 | > 300 | clearance [3]: 46.9 mL/min/kg; Vd [4]: 0.85 L/kg; half-life [5]: 0.283 h; MRT [6]: 0.317 h; Cmax [7]: 55 ng/mL; Tmax [8]: 0.333 h; half-life [9]: 9.18 h; bioavailability [10]: 11%; Papp [11]: 21.9 ×10⁻⁶ cm/s
28 | 7.3 | O=C(C(=O)N1CCN(C(=O)c2ccccc2)CC1)c1c[nH]c2c(F)cccc12 | > 152 | –

Row | EC50 [2] [nM] | SMILES | CC50 at 72 h [1] [µM] | other results
29 | 153 | O=C(C(=O)N1CCN(C(=O)c2ccccc2)CC1)c1c[nH]c2ccccc12 | 339 | Cmax [12]: 1040 ng/mL; clearance [13]: 57 mL/min/kg; Vd [14]: 1.5 L/kg; half-life [15]: 0.5 h; MRT [16]: 0.433 h; Tmax [17]: 0.55 h; half-life [18]: 2.72 h; bioavailability [19]: 29%; Papp [11]: 22.8 ×10⁻⁶ cm/s
30 | > 290 | O=C(C(=O)N1CCN(C(=O)c2ccccc2)CC1)c1c[nH]c2cc(F)c(F)cc12 | 170 | –
31 | 0.56 | Cc1ccc(F)c2c(C(=O)C(=O)N3CCN(C(=O)c4ccccc4)CC3)c[nH]c12 | 87.5 | –
32 | 265 | Cn1cc(C(=O)C(=O)N2CCN(C(=O)c3ccccc3)CC2)c2ccccc21 | 226 | –
33 | 395 | O=C(C(=O)N1CCN(C(=O)c2ccccc2)CC1)c1c[nH]c2ccc(Cl)cc12 | 46 | –
34 | 24900 | CC(=O)Oc1cccc2[nH]cc(C(=O)C(=O)N3CCN(C(=O)c4ccccc4)CC3)c12 | > 300 | –
35 | 952 | CC(=O)Oc1ccc2[nH]cc(C(=O)C(=O)N3CCN(C(=O)c4ccccc4)CC3)c2c1 | 95.2 | –
36 | 0.23 | COc1ccc(OC)c2c(C(=O)C(=O)N3CCN(C(=O)c4ccccc4)CC3)c[nH]c12 | 279 | clearance [3]: 5.2 mL/min/kg; Vd [4]: 0.52 L/kg; half-life [5]: 2.3 h; MRT [6]: 1.7 h; Cmax [7]: 3200 ng/mL; Tmax [8]: 3 h; half-life [9]: 1.85 h; bioavailability [10]: 107%
37 | 24.2 | CCc1cccc2c(C(=O)C(=O)N3CCN(C(=O)c4ccccc4)CC3)c[nH]c12 | > 49 | –
38 | 0.06 | COc1ccc(F)c2c(C(=O)C(=O)N3CCN(C(=O)c4ccccc4)CC3)c[nH]c12 | > 300 | –
39 | 3800 | O=C(C(=O)N1CCN(C(=O)c2ccccc2)CC1)c1c[nH]c2ccc([N+](=O)[O-])cc12 | 44.6 | –
40 | – | O=C(C(=O)N1CCN(C(=O)c2ccccc2)CC1)c1c[nH]c2cc(Cl)c(Cl)cc12 | 52.3 | EC50 [20]: 0.5 µM
41 | 8.2 | O=C(C(=O)N1CCN(C(=O)c2ccccc2)CC1)c1c[nH]c2c(F)ccc(Br)c12 | 86 | –
42 | 6.6 | COc1cccc2c(C(=O)C(=O)N3CCN(C(=O)c4ccccc4)CC3)c[nH]c12 | 154 | –
43 | 73.1 | O=C(C(=O)N1CCN(C(=O)c2ccccc2)CC1)c1c[nH]c2c(Br)cc(F)cc12 | 22.5 | –
44 | 23.1 | O=C(C(=O)N1CCN(C(=O)c2ccccc2)CC1)c1c[nH]c2cc(F)c(Br)c(F)c12 | 20.9 | –
45 | > 5000 | O=C(C(=O)N1CCN(C(=O)c2ccccc2)CC1)c1c[nH]c2cc(C(F)(F)F)ccc12 | 54.5 | –
46 | 21.1 | O=C(C(=O)N1CCN(C(=O)c2ccccc2)CC1)c1c[nH]c2cc(F)ccc12 | > 245 | –
47 | 89.5 | Cc1cccc2c(C(=O)C(=O)N3CCN(C(=O)c4ccccc4)CC3)c[nH]c12 | > 218 | –
48 | 46500 | COc1cc2[nH]cc(C(=O)C(=O)N3CCN(C(=O)c4ccccc4)CC3)c2cc1OC | > 300 | –
49 | 1.9 | N#Cc1ccc(F)c2c(C(=O)C(=O)N3CCN(C(=O)c4ccccc4)CC3)c[nH]c12 | > 300 | –
50 | 0.13 | O=C(C(=O)N1CCN(C(=O)c2ccccc2)CC1)c1c[nH]c2c(Br)ccc(F)c12 | 39.8 | –
51 | > 500 | N#Cc1ccc(F)c2[nH]cc(C(=O)C(=O)N3CCN(C(=O)c4ccccc4)CC3)c12 | > 300 | –
52 | 1090 | O=C(C(=O)N1CCN(C(=O)c2ccccc2)CC1)c1c[nH]c2ccc(Br)cc12 | > 149 | –
53 | 838 | O=C(C(=O)N1CCN(C(=O)c2ccccc2)CC1)c1c[nH]c2ccc(F)cc12 | > 300 | –
54 | 4.9 | N#Cc1cccc2c(C(=O)C(=O)N3CCN(C(=O)c4ccccc4)CC3)c[nH]c12 | 234 | –
55 | 0.14 | CCCCOc1cccc2c(C(=O)C(=O)N3CCN(C(=O)c4ccccc4)CC3)c[nH]c12 | 64.5 | –

Row | SMILES | EC50 [2] [nM] | CC50 at 72 h [1] [µM] | other results
56 | CCCCn1cc(C(=O)C(=O)N2CCN(C(=O)c3ccccc3)CC2)c2ccccc21 | 2650 | > 300 | –
57 | O=C(C(=O)N1CCN(C(=O)c2ccccc2)CC1)c1cn(Cc2ccccc2)c2ccccc12 | 13800 | 182 | –
